This is an account of results in US20180250207A1, “LIQUID CONCENTRATE FOR PRESERVING COSMETICS” (SCHÜLKE & MAYR GMBH, priority 2015, published 2018).

This assay relates to Staphylococcus aureus, Kocuria rhizophila, Enterobacter gergoviae, Escherichia coli, Klebsiella pneumoniae, Pseudomonas aeruginosa, Pseudomonas fluorescens …. Description: Koko test: preserving effect of preservatives in a cosmetic formulation (PEG-free emulsion for baby wipes), weekly re-inoculation and smears. In kind it is cell-based, bacteria, yeast, moulds. The note with it: use concentration of 1.0% by weight in the emulsion. As for the experimental part: The test described below serves to assess the preserving effect of chemical preservatives in cosmetic formulations. With the help of the described method, the aim is to test the efficacy of chemical preservatives with regard to pack preservation for cosmetic formulations. For this purpose, in different experimental batches to the nonpreserved samples, the preservatives to be investigated are added in different concentrations. A continual germ loading is achieved through periodic inoculation of the experimental batches. In parallel to the inoculation, smears of the individual batches are performed in each case directly beforehand. […] To be on the safe side, negative smears are observed for a further two days and assessed again. Assessment of the preserving effect of the individual product concentrations is performed in a semi-quantitative method via the growth of the individual smears. −=growth-free ++=moderate growth +=weak growth +++=strong growth The growth is differentiated according to bacteria, yeasts and moulds (“B”=bacteria, “Y”=yeasts, “M”=moulds, “Sp”=spore-forming bacteria, “/”=the test was terminated). […] The sample is well preserved if, under the aforementioned laboratory conditions, it withstands a period of six weeks without microbial attack of the sample batches, i.e. microbial growth cannot be detected even after the sixth inoculation. […]

Each structure is given as a SMILES string. Counter-ions that a name gives are not always drawn.

In the case of `CCCCCCCCN=c1ccn(CCCCCCCCCCn2ccc(=NCCCCCCCC)cc2)cc1` [Octenidine dihydrochloride], the “Preserving effect, overall assessment in words” value is recorded as “does not have an antimicrobial effect on its own”.
